Calls of active or inactive are those of the source. The rule behind the calls is not given here.
Legend:
[1] = Antiproliferative activity against human Osimertinib-resistant NCI-H1975 cell assessed as cell growth inhibition incubated for 72 hrs by MTT assay; assay type: functional, cell-based; conditions: NCI-H1975, 72 h
[2] = Induction of apoptosis in human Osimertinib-resistant NCI-H1975 cell assessed as necrotic cells at 2000 nM measured after 16 hrs by Annexin V-FITC and PI staining based analysis (reference value: 0.50%); assay type: functional
[3] = molecular target: CDK1/Cyclin A (Homo sapiens) (UniProt P06493+P20248); test: Inhibition of CDK1/Cyclin A2 (unknown origin) at 200 nM preincubated for 10 mins followed by substrate addition and measured after 60 mins in presence of ATP by ADP-Glo reagent based assay relative to control; assay type: protein-complex assay; conditions: time 70.0 min
[4] = Antitumor activity against patient derived #0416 lung cancer organoid assessed as inhibition of growth measured after 4 days; assay type: functional, tissue-based; conditions: Homo sapiens, 96 h
[5] = Antiproliferative activity against human Osimertinib-resistant NCI-H1975 cell incubated for 72 hrs by MTT assay; assay type: functional, cell-based; conditions: NCI-H1975, 72 h
[6] = molecular target: Cyclin-dependent kinase 5/CDK5 activator 1 (Homo sapiens) (UniProt Q00535+Q15078); test: Inhibition of CDK5/p25NCK (unknown origin) at 200 nM preincubated for 10 mins followed by substrate addition and measured after 60 mins in presence of ATP by ADP-Glo reagent based assay relative to control; assay type: protein-complex assay; conditions: time 70.0 min
[7] = tested on: Osimertinib-resistant HCC827AR cell; test: Inhibition of cell growth in 3D-cultured human Osimertinib-resistant HCC827 cell by DAPI and PI staining based analysis; assay type: functional; conditions: dose 0.049-3.125 µM
[8] = Induction of apoptosis in human Osimertinib-resistant NCI-H1975 cell assessed as viable cells at 500 nM measured after 16 hrs by Annexin V-FITC and PI staining based analysis (reference value: 94.9%); assay type: functional; conditions: read-out: Activity
[9] = Induction of apoptosis in human Osimertinib-resistant NCI-H1975 cell assessed as early apoptotic cells at 125 nM measured after 16 hrs in presence of osimertinib by Annexin V-FITC and PI staining based analysis (Rvb =1.78%); assay type: functional
[10] = tested on: NCI-H1975; test: Downregulation of Mcl-1 level in human Osimertinib-resistant NCI-H1975 cell at 500 nM measured after 8 hrs by Western blotting analysis; assay type: functional, cell-based
[11] = molecular target: Cyclin-dependent kinase 9 (Homo sapiens) (UniProt P50750); test: Inhibition of CDK9 in human Osimertinib-resistant NCI-H1975 cell assessed as suppression of p-RNAP II phosphorylation at Ser2 residue incubated for 8 hrs by Western blot analysis; assay type: cell-based; conditions: dose 0.05-1 µM
[12] = Toxicity in ICR mouse assessed as morphological changes in spleen at 1000 mg/kg, po measured after 9 days by H and E staining based analysis; assay type: organism-based; conditions: in vivo, 216 h, time 9 day
[13] = molecular target: Cyclin-dependent kinase 13/Cyclin-K (Homo sapiens) (UniProt Q14004+O75909); test: Inhibition of CDK13/cyclin K (unknown origin) at 200 nM preincubated for 10 mins followed by substrate addition and measured after 60 mins in presence of ATP by ADP-Glo reagent based assay relative to control; assay type: protein-complex assay; conditions: time 70.0 min
[14] = molecular target: Cyclin-C/Cyclin-dependent kinase 19 (Homo sapiens) (UniProt Q9BWU1+P24863); test: Inhibition of CDK19/cyclin C (unknown origin) at 200 nM preincubated for 10 mins followed by substrate addition and measured after 60 mins in presence of ATP by ADP-Glo reagent based assay relative to control; assay type: protein-complex assay; conditions: time 70.0 min
[15] = Toxicity in ICR mouse assessed as morphological changes in kidney at 1000 mg/kg, po measured after 9 days by H and E staining based analysis; assay type: organism-based; conditions: in vivo, 216 h, time 9 day
[16] = tested on: A549; test: Antiproliferative activity against human A549 cells incubated for 72 hrs by MTT assay; assay type: functional, cell-based; conditions: A549, 72 h
[17] = Antitumor activity against patient derived #2566 lung cancer organoid assessed as inhibition of growth measured after 4 days; assay type: functional, tissue-based; conditions: Homo sapiens, 96 h
[18] = cells; conditions: Homo sapiens, Osimertinib-resistant HCC827AR cell, 72 h
[19] = Antiproliferative activity against 3D-cultured human Osimertinib-resistant HCC827 cell incubated for 72 hrs by MTT assay; assay type: functional, cell-based; conditions: Osimertinib-resistant HCC827AR cell
[20] = Toxicity in ICR mouse assessed as morphological changes in lung at 1000 mg/kg, po measured after 9 days by H and E staining based analysis; assay type: organism-based; conditions: in vivo, 216 h, time 9 day
[21] = Induction of apoptosis in human Osimertinib-resistant NCI-H1975 cell assessed as viable cells at 125 nM measured after 16 hrs by Annexin V-FITC and PI staining based analysis (reference value: 94.9%); assay type: functional; conditions: read-out: Activity
[22] = molecular target: CDK7/Cyclin H/MNAT1 (Homo sapiens) (UniProt P51946+P50613+P51948); test: Inhibition of CDK7/Cyclin H/MAT1 (unknown origin) at 200 nM preincubated for 10 mins followed by substrate addition and measured after 60 mins in presence of ATP by ADP-Glo reagent based assay relative to control; assay type: protein-complex assay; conditions: time 70.0 min
[23] = molecular target: Dual specificity protein kinase CLK1 (Homo sapiens) (UniProt P49759); test: Inhibition of CLK1 (unknown origin) at 500 nM preincubated for 10 mins followed by substrate addition and measured after 60 mins in presence of ATP by ADP-Glo reagent based assay relative to control; conditions: time 70.0 min
[24] = tested on: NCI-H1299; test: Antiproliferative activity against human NCI-H1299 cells incubated for 72 hrs by MTT assay; assay type: functional, cell-based; conditions: NCI-H1299, 72 h
[25] = tested on: NCI-H1975; test: Inhibition of cell growth in 3D-cultured human Osimertinib-resistant NCI-H1975 cell by DAPI and PI staining based analysis; assay type: functional; conditions: dose 0.049-3.125 µM
[26] = molecular target: CDK6/cyclin D1 (Homo sapiens) (UniProt P24385+Q00534); test: Inhibition of CDK6/cyclin D1 (unknown origin) at 200 nM preincubated for 10 mins followed by substrate addition and measured after 60 mins in presence of ATP by ADP-Glo reagent based assay relative to control; assay type: protein-complex assay; conditions: time 70.0 min
[27] = tested on: NCI-H1975; test: Inhibition of colony formation in human Osimertinib-resistant NCI-H1975 cell assessed as inhibition of cell growth at 125 to 2000 nM measured after 2 weeks by crystal violet staining based analysis; assay type: functional; conditions: dose 125-2000 nM
[28] = Induction of apoptosis in human Osimertinib-resistant NCI-H1975 cell assessed as necrotic cells at 125 nM measured after 16 hrs in presence of osimertinib by Annexin V-FITC and PI staining based analysis (reference value: 0.50%); assay type: functional
[29] = Toxicity in ICR mouse assessed as effect on body weight loss at 100 mg/kg, iv measured for 8 to 9 days; assay type: organism-based; conditions: in vivo, time 8-9 day
[30] = tested on: Epidermal growth factor receptor (Homo sapiens), P00533 [L858R,T790M,C797S]; test: Inhibition of EGFR T790M/C797S/L858R triple mutant (unknown origin) at 2500 nM preincubated for 10 mins followed by substrate addition and measured after 60 mins in presence of ATP by ADP-Glo reagent based assay relative to control; conditions: time 70.0 min
[31] = molecular target: Glycogen synthase kinase-3 beta (Homo sapiens) (UniProt P49841); test: Inhibition of GSK3beta (unknown origin) at 500 nM preincubated for 10 mins followed by substrate addition and measured after 60 mins in presence of ATP by ADP-Glo reagent based assay relative to control; conditions: time 70.0 min
Chain of Glycogen synthase kinase-3 beta (Homo sapiens) (P49841 whole entry, looked up): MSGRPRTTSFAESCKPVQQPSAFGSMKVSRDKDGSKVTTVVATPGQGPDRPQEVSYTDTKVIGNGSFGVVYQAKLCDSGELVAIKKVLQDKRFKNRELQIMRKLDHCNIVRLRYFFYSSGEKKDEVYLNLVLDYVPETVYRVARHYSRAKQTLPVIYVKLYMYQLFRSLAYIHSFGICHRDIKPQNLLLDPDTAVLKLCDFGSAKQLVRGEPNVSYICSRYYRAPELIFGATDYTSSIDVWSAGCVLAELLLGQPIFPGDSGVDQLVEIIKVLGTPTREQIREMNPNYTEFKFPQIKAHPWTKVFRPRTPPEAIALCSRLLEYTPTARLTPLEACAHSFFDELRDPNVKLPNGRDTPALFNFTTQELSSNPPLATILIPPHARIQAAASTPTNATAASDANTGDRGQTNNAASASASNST

Chain of CDK1/Cyclin A (Homo sapiens) (P06493 whole entry, looked up): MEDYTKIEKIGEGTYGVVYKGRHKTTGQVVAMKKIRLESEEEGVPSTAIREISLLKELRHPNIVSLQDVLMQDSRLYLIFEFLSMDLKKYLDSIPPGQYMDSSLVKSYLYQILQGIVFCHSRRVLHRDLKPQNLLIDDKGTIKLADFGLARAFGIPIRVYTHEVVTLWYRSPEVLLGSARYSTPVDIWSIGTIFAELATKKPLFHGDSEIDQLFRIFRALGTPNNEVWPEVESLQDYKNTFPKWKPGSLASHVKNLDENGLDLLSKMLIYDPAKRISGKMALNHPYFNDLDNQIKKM
Chain of CDK1/Cyclin A (Homo sapiens) (P20248 whole entry, looked up): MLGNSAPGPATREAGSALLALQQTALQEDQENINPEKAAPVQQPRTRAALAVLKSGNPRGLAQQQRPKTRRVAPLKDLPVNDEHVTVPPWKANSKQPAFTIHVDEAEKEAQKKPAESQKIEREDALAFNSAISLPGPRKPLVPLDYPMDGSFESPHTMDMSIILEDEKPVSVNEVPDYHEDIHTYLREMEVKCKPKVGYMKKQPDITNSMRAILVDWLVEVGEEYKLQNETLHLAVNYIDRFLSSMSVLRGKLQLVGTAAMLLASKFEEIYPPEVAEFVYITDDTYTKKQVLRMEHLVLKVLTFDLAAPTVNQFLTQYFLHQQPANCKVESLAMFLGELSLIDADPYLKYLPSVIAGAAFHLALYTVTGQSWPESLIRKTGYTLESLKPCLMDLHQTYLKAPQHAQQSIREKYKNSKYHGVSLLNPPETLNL
Chain of Cyclin-dependent kinase 9 (Homo sapiens) (P50750 whole entry): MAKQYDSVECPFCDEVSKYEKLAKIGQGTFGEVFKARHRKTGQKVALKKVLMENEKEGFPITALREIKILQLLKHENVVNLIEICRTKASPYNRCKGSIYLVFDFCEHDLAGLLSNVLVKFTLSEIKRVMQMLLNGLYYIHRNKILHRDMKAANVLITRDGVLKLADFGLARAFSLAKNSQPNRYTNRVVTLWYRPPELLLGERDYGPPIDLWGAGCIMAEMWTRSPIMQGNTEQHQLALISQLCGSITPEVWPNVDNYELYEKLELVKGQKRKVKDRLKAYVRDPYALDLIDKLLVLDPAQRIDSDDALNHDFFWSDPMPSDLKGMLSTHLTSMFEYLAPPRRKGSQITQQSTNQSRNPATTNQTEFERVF
Chain of Dual specificity protein kinase CLK1 (Homo sapiens) (P49759 whole entry, looked up): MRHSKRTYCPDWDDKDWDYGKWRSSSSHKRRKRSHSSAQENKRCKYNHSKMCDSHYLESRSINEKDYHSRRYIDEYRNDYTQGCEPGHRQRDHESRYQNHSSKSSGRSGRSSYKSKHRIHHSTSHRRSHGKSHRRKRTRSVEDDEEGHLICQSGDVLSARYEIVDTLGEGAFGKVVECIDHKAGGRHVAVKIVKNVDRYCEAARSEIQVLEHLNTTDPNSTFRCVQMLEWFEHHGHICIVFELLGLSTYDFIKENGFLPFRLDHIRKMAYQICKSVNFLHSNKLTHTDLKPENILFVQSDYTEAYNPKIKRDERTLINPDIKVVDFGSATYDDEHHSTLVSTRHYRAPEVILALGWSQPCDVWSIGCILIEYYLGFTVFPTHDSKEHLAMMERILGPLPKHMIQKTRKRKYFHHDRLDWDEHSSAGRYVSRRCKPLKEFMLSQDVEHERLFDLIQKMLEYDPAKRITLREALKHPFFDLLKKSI
Chain of Cyclin-dependent kinase 5/CDK5 activator 1 (Homo sapiens) (Q00535 whole entry): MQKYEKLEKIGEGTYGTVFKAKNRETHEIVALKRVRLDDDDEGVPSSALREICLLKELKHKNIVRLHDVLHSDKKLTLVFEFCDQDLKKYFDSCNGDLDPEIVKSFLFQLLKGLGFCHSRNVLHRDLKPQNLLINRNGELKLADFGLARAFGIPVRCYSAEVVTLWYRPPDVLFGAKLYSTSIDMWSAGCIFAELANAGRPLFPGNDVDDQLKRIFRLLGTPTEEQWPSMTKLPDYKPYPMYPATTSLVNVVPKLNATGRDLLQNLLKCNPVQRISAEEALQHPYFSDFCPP
Chain of Cyclin-dependent kinase 5/CDK5 activator 1 (Homo sapiens) (Q15078 99-307 partner limits assumed): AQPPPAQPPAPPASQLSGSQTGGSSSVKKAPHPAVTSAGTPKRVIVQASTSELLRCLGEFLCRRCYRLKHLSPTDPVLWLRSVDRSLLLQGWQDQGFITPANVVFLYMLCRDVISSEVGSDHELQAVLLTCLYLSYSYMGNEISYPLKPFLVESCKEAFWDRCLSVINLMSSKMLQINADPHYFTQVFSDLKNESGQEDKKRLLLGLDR
Chain of Epidermal growth factor receptor (Homo sapiens), P00533 [L858R,T790M,C797S] (P00533 whole entry T790M/C797S/L858R): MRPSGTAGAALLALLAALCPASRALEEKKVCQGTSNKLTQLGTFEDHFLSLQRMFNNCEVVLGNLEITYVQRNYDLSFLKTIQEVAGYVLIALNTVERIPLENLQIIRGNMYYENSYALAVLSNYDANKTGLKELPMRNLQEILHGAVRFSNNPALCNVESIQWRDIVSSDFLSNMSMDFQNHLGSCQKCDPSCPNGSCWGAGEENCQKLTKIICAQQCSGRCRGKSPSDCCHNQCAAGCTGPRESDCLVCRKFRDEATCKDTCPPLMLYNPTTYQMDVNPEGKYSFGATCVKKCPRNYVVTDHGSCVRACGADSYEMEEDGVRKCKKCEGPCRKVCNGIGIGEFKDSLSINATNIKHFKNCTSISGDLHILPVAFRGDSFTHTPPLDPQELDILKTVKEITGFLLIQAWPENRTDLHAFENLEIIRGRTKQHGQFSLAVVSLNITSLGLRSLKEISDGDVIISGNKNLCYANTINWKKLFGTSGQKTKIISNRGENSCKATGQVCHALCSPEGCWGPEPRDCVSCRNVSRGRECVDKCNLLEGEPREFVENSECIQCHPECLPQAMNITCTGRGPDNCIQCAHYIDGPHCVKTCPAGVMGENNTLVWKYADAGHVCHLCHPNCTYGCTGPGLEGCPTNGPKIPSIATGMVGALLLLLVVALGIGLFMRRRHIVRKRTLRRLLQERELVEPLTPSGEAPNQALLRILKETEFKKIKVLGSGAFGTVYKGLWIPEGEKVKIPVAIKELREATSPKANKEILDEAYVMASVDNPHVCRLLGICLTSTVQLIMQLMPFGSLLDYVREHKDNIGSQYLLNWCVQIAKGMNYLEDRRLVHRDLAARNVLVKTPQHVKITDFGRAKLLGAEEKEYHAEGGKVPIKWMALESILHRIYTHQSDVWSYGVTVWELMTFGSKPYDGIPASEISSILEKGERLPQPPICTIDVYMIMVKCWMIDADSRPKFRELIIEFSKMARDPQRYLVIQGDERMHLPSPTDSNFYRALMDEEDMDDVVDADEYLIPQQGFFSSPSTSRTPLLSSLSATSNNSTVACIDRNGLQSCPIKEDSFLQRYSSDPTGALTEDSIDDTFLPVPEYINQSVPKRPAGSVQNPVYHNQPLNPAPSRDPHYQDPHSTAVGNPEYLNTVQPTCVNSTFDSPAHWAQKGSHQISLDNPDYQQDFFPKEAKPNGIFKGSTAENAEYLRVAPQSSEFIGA

O=C(NCCN1CCOCC1)c1ccc2cc1OCCCCCCOc1cc(ccc1F)-c1nc(ncc1F)N2
IC50 [1]: 190 nM
Activity [2]: 1.97%
inhibition [3]: 15.7%
IC50 [4]: 79 nM
IC50 [5]: 251 nM
inhibition [6]: 38.9%
inhibition [7]: Dose-Dependent Effect
viability at 0.5 µM [8]: 75.6%
Activity [9]: 3.15%
Activity [10]: Active
inhibition [11]: Dose-Dependent Effect
Activity [12]: Non-Toxic
inhibition [13]: 46.7%
inhibition [14]: 11.5%
Activity [15]: Non-Toxic
IC50 [16]: 409 nM
IC50 [17]: < 20 nM
IC50 [18]: 251 nM
IC50 [19]: 330 nM
Activity [20]: Non-Toxic
viability at 0.125 µM [21]: 88.9%
inhibition [22]: 12.8%
inhibition [23]: 96.5%
IC50 [24]: 85 nM
inhibition [25]: Dose-Dependent Effect
inhibition [26]: 29.3%
inhibition [27]: Active
Activity [28]: 0.27%
Activity [29]: Non-Toxic
inhibition [30]: 33.3%
inhibition [31]: 93.9%
